{"source": "patent US8318799B2", "about": "“Therapeutic agent for substance dependence” (National University Corporation Kyushu University, priority 2004, dated 2012)", "key": {"[1]": {"test_system": "male Wister/ST rats", "assay": "influence on methamphetamine-taking behavior (methamphetamine self-administration)", "assay_type": "in vivo, rat", "conditions": "1.0 mg/kg intraperitoneally; FIG. 5", "excerpt": "FIG. 5 is a graph showing the influence of the compound of the present invention on methamphetamine self-administration.\n(§1) A catheter for self-administration of methamphetamine (inner diameter of 0.5 mm, outer diameter of 1.0 mm) was inserted into the right jugular vein of male Wister/ST rats (250 to 350 g), and the end of the catheter was anchored to just outside the right atrium. An operant box used in the experiment was equipped with 2 levers. One is an active lever by which when pressed once (fixed-ratio 1 (FR1)), infusions of a very low dose of methamphetamine (0.02 mg per injection) was paired with onset of a 6-sec tone (70 dB/7 kHz) and light (300 lux) compound stimulus.\n(§2) After the animal was allowed to get methamphetamine self-administration behavior (methamphetamine-taking behavior) by the self-administration experiment for 10 days (2 hours per session), physiological saline was substituted for methamphetamine, to carry out an extinction process for 5 days (1 hour per session without drug-associated cue).\nFor examining the influence of the compound of the present invention on methamphetamine-taking behavior, 1.0 mg/kg of the compound of the present invention was administered intraperitoneally."}, "[2]": {"test_system": "male Wister/ST rats", "assay": "methamphetamine-seeking behavior induced by forced administration of a low dose of methamphetamine (drug self-administration procedure, after extinction)", "assay_type": "in vivo, rat", "excerpt": "(§3) First, an experimental animal is allowed to learn the drug self-administration behavior of pressing a lever to attain a substance. The animal is given a substance-containing solution simultaneously with a light-tone stimulus. After the animal is allowed to learn the substance self-administration behavior, the substance-containing solution is replaced by physiological saline. The behavior of eagerly pressing the lever for acquiring the substance comes to be observed in the experimental animal having learned the substance self-administration behavior. This behavior is regarded as substance-seeking behavior. […] However, the substance-seeking behavior will recur by the same light-tone stimulus (drug-associated stimuli) used during the self-administration training to the experimental animal or by administrating a substance inducing the central stimulant effect. This experimental system was used to examine the effect of various compounds.\n(§4) Using methamphetamine as an addictive substance, the following experiments were carried out according to a method described in Neuropsychopharmacology, 29, 1470-1478 (2004).\nas §1\nAfter the animal was allowed to get methamphetamine self-administration behavior (methamphetamine-taking behavior) by the self-administration experiment for 10 days (2 hours per session), physiological saline was substituted for methamphetamine, to carry out an extinction process for 5 days (1 hour per session without drug-associated cue). […]"}, "[3]": {"conditions": "Eur. J. Pharmacol. 421, 181-189 (2001); cited from earlier work"}, "[4]": {"test_system": "male Wister/ST rats", "assay": "influence on occurrence of substance-seeking behavior by the compound itself", "assay_type": "in vivo, rat", "conditions": "high dose 10 mg/kg i.p.; FIG. 6"}, "[5]": {"test_system": "male Wister/ST rats", "assay": "methamphetamine-seeking behavior induced by drug-associated cue (drug self-administration procedure, after extinction)", "assay_type": "in vivo, rat", "conditions": "for antagonism in cue-induced methamphetamine-seeking behavior on coadministration with the compound of the present invention: 30 minutes before cue, FIG. 7", "excerpt": "as §3, §4, §1, §2\nOn day 6 of the extinction process, substance-seeking behavior (“craving”) was induced by drug-associated cue (tone and light) or by administering a low dose of methamphetamine (1.0 mg/kg, intraperitoneal (i.p.) administration).\nThirty minutes before this stimulation with the drug-associated cue or by the administration of a low dose of methamphetamine, […] administration of the compound of the present invention (0.32, 1.0 mg/kg, i.p.) was carried out, and a change in the methamphetamine-seeking behavior induced by drug-associated cue or by forced administration of methamphetamine was observed. […]"}}, "data": [{"smiles": "CCCNC(CCC)Cc1cc2ccccc2o1", "note": "(single isomer, unassigned; (-)) [the compound of the present invention, (−)-1-(benzofuran-2-yl)-2-propylaminopentane]", "values": [{"measurement": "influence on methamphetamine-taking behavior (number of active lever pressings for self-administration)", "setting": "[1]", "value": "did not exert any influence"}, {"measurement": "methamphetamine-seeking behavior induced by forced administration of methamphetamine", "setting": "[2]; repeated administration 1.0 mg/kg i.p. in the extinction process for 5 days, FIG. 4", "value": "suppressed significantly"}, {"measurement": "methamphetamine-seeking behavior (number of active lever-pressings, 30 minutes) induced by forced administration of methamphetamine", "setting": "[2]; single administration 0.32, 1.0 mg/kg i.p., 30 minutes before methamphetamine 1.0 mg/kg i.p., day 6 of extinction, FIG. 2", "value": "suppressed significantly and dose-dependently"}, {"measurement": "reduction in spontaneous motor activity induced by reserpine", "setting": "[3]", "value": "improves"}, {"measurement": "occurrence of methamphetamine-seeking behavior after the compound alone", "setting": "[4]", "value": "although weak, caused methamphetamine-seeking behavior"}, {"measurement": "methamphetamine-seeking behavior induced by drug-associated cue", "setting": "[5]; repeated administration 1.0 mg/kg i.p. in the extinction process for 5 days, FIG. 3", "value": "suppressed significantly"}, {"measurement": "methamphetamine-seeking behavior (number of active lever-pressings, 30 minutes) induced by drug-associated cue", "setting": "[5]; single administration 0.32, 1.0 mg/kg i.p., 30 minutes before stimulation, day 6 of extinction, FIG. 1", "value": "suppressed significantly and dose-dependently"}]}, {"smiles": "CN1CCc2cc(Cl)c(O)cc2[C@@H](c2ccccc2)C1.Cl", "note": "[SCH23390, R-(+)-7-chloro-8-hydroxy-3-methyl-1-phenyl-2,3,4,5-tetrahydro-1H-3-benza zepine hydrochloride, reference compound]", "values": [{"measurement": "antagonism in cue-induced methamphetamine-seeking behavior on coadministration with the compound of the present invention", "setting": "[5]; SCH23390 0.0001 mg/kg s.c. with the compound of the present invention (0.32, 1.0 mg/kg i.p.)", "value": "showed a tendency to be antagonized"}]}, {"smiles": "CCN1CCCC1CNC(=O)c1cc(S(=O)(=O)CC)ccc1OC", "note": "(stereo not shown) [sultopride, reference compound]", "values": [{"measurement": "antagonism in methamphetamine-induced methamphetamine-seeking behavior on coadministration with the compound of the present invention", "setting": "[2]; sultopride 10 mg/kg i.p. with the compound of the present invention (0.32, 1.0 mg/kg i.p.), 30 minutes before low dose of methamphetamine, FIG. 8", "value": "not"}, {"measurement": "antagonism in cue-induced methamphetamine-seeking behavior on coadministration with the compound of the present invention", "setting": "[5]; sultopride 10 mg/kg i.p. with the compound of the present invention (0.32, 1.0 mg/kg i.p.)", "value": "not"}]}]}
